The values below are quoted from earlier work in US20230030915A1, “Pet Food Compositions” (Hill's Pet Nutrition, Inc., priority 2019, published 2023).

The test system of the series is piglets.

Regarding `C[N+](C)(C)CC(=O)O` [Betaine, Glycine betaine], the margin of safety result (at 2 000 mg/kg complete feed) is “below 5”. Besides, the “maximum supplementation rate at which safe” value (via feed) is 2 000 mg/kg complete feed.
